Experimental data taken from patent US20230203029A1 (priority 2020, published 2023).
pIC50: −log10 of the molar value. Read-outs that look alike come from different tables or passages of the source.

Key:
[1] = molecular target: T1, human MERTK cytoplasmic domain (Homo sapiens, UniProt Q12866); assay: biochemical
T1 construct: human MERTK cytoplasmic domain (Carna Biosciences 08-108); purchased Carna Biosciences 08-108
Description: Assay 1a—MERTK HTRF KinEASE-TK Assay
The enzymatic reaction was carried out for 30 min at room temperature. 10 μL TK Antibody-Cryptate/Streptavidin-XL665 (Cisbio 610SAXLG) was then added for 60 min, including EDTA containing detection buffer (Cisbio 62SDBRDF) to stop the reaction.

[2] = molecular target: T2, human AXL cytoplasmic domain (Homo sapiens, UniProt P30530); assay: Assay 1b AXL HTRF KinEASE-TK assay; type: biochemical
T2 construct: human AXL cytoplasmic domain (Thermo Fisher A31515); purchased Thermo Fisher A31515
T2 sequence (P30530 473-894 limits assumed): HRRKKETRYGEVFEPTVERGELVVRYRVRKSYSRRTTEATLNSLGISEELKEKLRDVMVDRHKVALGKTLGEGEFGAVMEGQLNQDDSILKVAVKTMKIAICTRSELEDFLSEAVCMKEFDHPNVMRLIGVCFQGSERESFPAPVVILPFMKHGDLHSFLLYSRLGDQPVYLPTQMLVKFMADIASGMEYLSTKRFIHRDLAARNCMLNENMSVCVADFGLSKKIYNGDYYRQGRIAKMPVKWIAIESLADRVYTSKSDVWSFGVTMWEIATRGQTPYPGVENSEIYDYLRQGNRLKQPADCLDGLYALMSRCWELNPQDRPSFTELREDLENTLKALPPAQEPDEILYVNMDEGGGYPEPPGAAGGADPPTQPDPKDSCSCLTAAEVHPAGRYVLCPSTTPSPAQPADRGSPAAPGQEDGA
How it was run: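 Recombinant cytoplasmic domain (5 nM) in kinase buffer with 5 mM MgCl2, 1 mM MnCl2, 1 mM DTT, 50 nM SEB plus test compounds; reaction 30 min at room temperature. EDTA-containing detection with TK antibody-cryptate/streptavidin-XL665 for 60 min; HTRF 665/620 ratio read. IC50 from 4-parameter logistic fit with variable slope.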

[3] = molecular target: T3, Ba/F3 Pro B-cell line expressing TEL-human MERTK fusion domain (Homo sapiens, UniProt Q12866); type: cell-based
T3 sequence (Q12866 587-858 limits assumed): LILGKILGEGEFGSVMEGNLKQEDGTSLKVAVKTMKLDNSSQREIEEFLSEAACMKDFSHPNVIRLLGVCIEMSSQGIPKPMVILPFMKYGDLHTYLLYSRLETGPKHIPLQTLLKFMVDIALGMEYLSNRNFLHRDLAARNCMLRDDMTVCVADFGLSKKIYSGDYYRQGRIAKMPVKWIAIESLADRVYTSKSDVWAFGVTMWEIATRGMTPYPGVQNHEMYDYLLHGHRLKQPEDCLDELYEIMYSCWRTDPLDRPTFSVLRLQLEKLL
How it was run: (§1)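 Ba/F3 cells dependent on BCR-AXL or TEL-MERTK fusion kinase (IL3-free; IL3 only for control lines) treated with compound 48 h at 37 °C, 0.25% DMSO. Viability by CellTiter-Glo luminescence; IC50 for half-maximal inhibition of survival from 4-parameter variable-slope fit.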

[4] = molecular target: T4, Ba/F3 Pro B-cell line expressing BCR-human AXL kinase domain fusion protein (Homo sapiens, UniProt P30530); assay: Assay 5 Ba/F3 cell survival assay, BCR-Axl; type: cell-based; conditions: read-out: BCR-Axl Ba/F3 IC50, 48 h, CellTiter-Glo
T4 construct: P11274 (Breakpoint cluster region protein)
T4 sequence (P30530 536-807 limits assumed): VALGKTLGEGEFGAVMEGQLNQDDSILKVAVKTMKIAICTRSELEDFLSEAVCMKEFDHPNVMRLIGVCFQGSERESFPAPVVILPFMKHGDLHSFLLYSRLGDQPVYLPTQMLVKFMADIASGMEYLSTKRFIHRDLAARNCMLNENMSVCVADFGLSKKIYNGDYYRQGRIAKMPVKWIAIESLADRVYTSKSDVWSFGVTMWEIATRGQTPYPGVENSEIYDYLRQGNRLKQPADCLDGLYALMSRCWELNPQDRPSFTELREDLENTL
How it was run: as §1

[5] = 30 uM ATP, read-out: Assay 1a Mer IC50 30 uM ATP
[6] = cell survival, 48 h, CellTiter-Glo; read-out: TEL-MERTK Ba/F3 IC50

T1 sequence (Q12866 527-999): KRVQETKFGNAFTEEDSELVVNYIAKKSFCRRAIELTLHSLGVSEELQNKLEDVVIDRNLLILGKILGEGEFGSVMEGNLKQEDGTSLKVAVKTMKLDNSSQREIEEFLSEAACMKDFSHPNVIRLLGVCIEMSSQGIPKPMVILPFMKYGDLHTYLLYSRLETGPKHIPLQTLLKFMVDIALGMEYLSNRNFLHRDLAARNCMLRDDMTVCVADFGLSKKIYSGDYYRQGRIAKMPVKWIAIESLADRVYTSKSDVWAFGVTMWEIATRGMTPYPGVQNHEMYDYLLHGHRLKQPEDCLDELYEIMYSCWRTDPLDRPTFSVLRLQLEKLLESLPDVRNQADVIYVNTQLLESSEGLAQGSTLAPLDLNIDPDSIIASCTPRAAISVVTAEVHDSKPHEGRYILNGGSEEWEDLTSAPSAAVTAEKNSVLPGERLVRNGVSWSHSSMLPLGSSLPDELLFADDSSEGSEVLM

Compound	pIC50 [1, 5]	pIC50 [2]	pIC50 [3, 6]	pIC50 [4]	pIC50 [1]	pIC50 ([3]; read-out: TEL-MERTK Ba/F3 IC50; cell survival, 48 h, CellTiter-Glo)
CN1CCC(NC(=O)c2cc3c(Nc4ccc(NC(=O)c5cccn(-c6ccccc6)c5=O)cc4)ccnc3cn2)CC1 [Example 3, N-(1-methyl-4-piperidyl)-4-[4-[(2-oxo-1-phenyl-pyridine-3-carbonyl)amino]anilino]-1,7-naphthyridine-6-carboxamide]	7.26	6.70	6.50	7.35		
O=C(Nc1ccc(Oc2ccnc3cnc(N4CCNCC4)cc23)cc1)c1cccn(-c2ccc(F)cc2)c1=O [Example 12.2, 1-(4-fluorophenyl)-2-oxo-N-[4-[(6-piperazin-1-yl-1,7-naphthyridin-4-yl)oxy]phenyl]pyridine-3-carboxamide]	7.70	7.80	7.25	7.32		
CC(C)n1cc(C(=O)Nc2ccc(Oc3ccnc4cnc(N5CCNCC5)cc34)cc2)c(=O)n(-c2ccccn2)c1=O [Example 12.3, 1-isopropyl-2,4-dioxo-N-[4-[(6-piperazin-1-yl-1,7-naphthyridin-4-yl)oxy]phenyl]-3-(2-pyridyl)pyrimidine-5-carboxamide]	7.25	7.72	6.37	7.19		
CC(C)n1cc(C(=O)Nc2ccc(Oc3ccnc4cnc(N5CCNCC5)cc34)cc2)c(=O)n(-c2ccc(F)cn2)c1=O [Example 12.4, 3-(5-fluoro-2-pyridyl)-1-isopropyl-2,4-dioxo-N-[4-[(6-piperazin-1-yl-1,7-naphthyridin-4-yl)oxy]phenyl]pyrimidine-5-carboxamide]	8.10	8.22	7.00	7.92		
CC(C)n1cc(C(=O)Nc2ccc(Oc3ccnc4cnc(N5CCNCC5)cc34)cc2)c(=O)c(-c2ccc(F)cc2)c1 [Example 13, 5-(4-Fluorophenyl)-1-isopropyl-4-oxo-N-[4-[(6-piperazin-1-yl-1,7-naphthyridin-4-yl)oxy]phenyl]pyridine-3-carboxamide]	9.00	8.22	7.51	7.89		
Cn1cc(C(=O)Nc2ccc(Oc3ccnc4cnc(N5CCNCC5)cc34)cc2)c(=O)c(-c2ccc(F)cc2)c1 [Example 13.1, 5-(4-fluorophenyl)-1-methyl-4-oxo-N-[4-[(6-piperazin-1-yl-1,7-naphthyridin-4-yl)oxy]phenyl]pyridine-3-carboxamide]	8.40	8.00	7.30	7.66		
C[C@H](CO)n1cc(C(=O)Nc2ccc(Oc3ccnc4cnc(C(=O)NC5CCN(C)CC5)cc34)cc2)c(=O)n(-c2ccc(F)cc2)c1=O [Example 14, 4-[4-[[3-(4-Fluorophenyl)-2,4-dioxo-1-[(1R)-2-hydroxy-1-methyl-ethyl]pyrimidine-5-carbonyl]amino]phenoxy]-N-(1-methyl-4-piperidyl)-1,7-naphthyridine-6-carboxamide]	7.85	8.00	7.10	8.15		
CN1CCC(NC(=O)c2cc3c(Oc4ccc(NC(=O)c5cn(C6CC6)c(=O)n(-c6ccc(F)cc6)c5=O)cc4)ccnc3cn2)CC1 [Example 15, 4-[4-[[1-Cyclopropyl-3-(4-fluorophenyl)-2,4-dioxo-pyrimidine-5-carbonyl]amino]phenoxy]-N-(1-methyl-4-piperidyl)-1,7-naphthyridine-6-carboxamide]	7.66	8.00	6.80	7.85		
O=C(Nc1ccc(Oc2ccnc3cnc(N4CCN(C5COC5)CC4)cc23)cn1)c1ccnn(-c2ccc(F)cc2)c1=O [Example 20, 2-(4-fluorophenyl)-N-[5-[[6-[4-(oxetan-3-yl)piperazin-1-yl]-1,7-naphthyridin-4-yl]oxy]-2-pyridyl]-3-oxo-pyridazine-4-carboxamide]	8.52	8.15	7.70	7.80		
CC(C)n1cc(C(=O)Nc2ccc(Oc3ccnc4cnc(C(=O)NC5CCN(C)CC5)cc34)cn2)c(=O)n(-c2ccc(F)cc2)c1=O [Example 27.5, 4-[[6-[[3-(4-fluorophenyl)-1-isopropyl-2,4-dioxo-pyrimidine-5-carbonyl]amino]-3-pyridyl]oxy]-N-(1-methyl-4-piperidyl)-1,7-naphthyridine-6-carboxamide]	7.82	8.05	8.05	8.70		
Cc1cc(NC(=O)c2cccn(-c3ccccc3)c2=O)ccc1Oc1ccnc2cnc(N3CCNCC3)cc12 [Example 30, N-[3-methyl-4-[(6-piperazin-1-yl-1,7-naphthyridin-4-yl)oxy]phenyl]-2-oxo-1-phenyl-pyridine-3-carboxamide]		6.06		6.33	7.89	6.33
CN1CCC(NC(=O)c2cc3c(Oc4ccc(NC(=O)c5cccn(-c6ccccc6)c5=O)cc4F)ccnc3cn2)CC1 [Example 33, 4-[2-fluoro-4-[(2-oxo-1-phenyl-pyridine-3-carbonyl)amino]phenoxy]-N-(1-methyl-4-piperidyl)-1,7-naphthyridine-6-carboxamide]	8.10	7.42	7.24	7.52		
O=C(Nc1ccc(Oc2ccnc3cnc(N4CCNCC4)cc23)cc1)c1cn(C2CC2)c(=O)n(-c2ccc(F)cc2)c1=O [Example 36, 1-cyclopropyl-3-(4-fluorophenyl)-2,4-dioxo-N-[4-[(6-piperazin-1-yl-1,7-naphthyridin-4-yl)oxy]phenyl]pyrimidine-5-carboxamide]	7.70	8.30	6.80	7.47		
CN1CCC(NC(=O)c2cc3c(Oc4ccc(NC(=O)c5cn(C)cc(-c6ccc(F)cc6)c5=O)cc4)ccnc3cn2)CC1 [Example 37, 4-[4-[[5-(4-fluorophenyl)-1-methyl-4-oxo-pyridine-3-carbonyl]amino]phenoxy]-N-(1-methyl-4-piperidyl)-1,7-naphthyridine-6-carboxamide]	8.52	8.15	7.30	7.77		
CC(C)n1cc(C(=O)Nc2ccc(Oc3ccnc4cnc(C(=O)NC5CCN(C)CC5)cc34)cc2)c(=O)c(-c2ccc(F)cc2)c1 [Example 37.1, 4-[4-[[5-(4-fluorophenyl)-1-isopropyl-4-oxo-pyridine-3-carbonyl]amino]phenoxy]-N-(1-methyl-4-piperidyl)-1,7-naphthyridine-6-carboxamide]	8.70	8.30	8.10	8.70		
